# According to ChEMBL document CHEMBL1201862, “PubChem BioAssay data set” (2004):
# “And” between values parts separate entries of the source, which are not always exact repeats. Identical values can stand only once.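 The compound was tested at five concentrations on cells cultured in 96-well plates, with a 48-hour exposure period. GI50 = concentration required for 50% inhibition of growth.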 The source made the active and inactive calls. No stated cut-off is given here; in the data, active = GI50 up to about 1.1 µM and inactive = higher.
# What was measured:
# Assay in all cases: NCI-60 cell line screen, 48 h
# PC-3 = test system: PC-3
# HCT-15 = test system: HCT-15
# K562 = test system: K562
# MDA-N = test system: MDA-N
# SK-MEL-28 = test system: SK-MEL-28
# NCI-H460 = test system: NCI-H460
# RXF 393 = test system: RXF 393
# NCI-H226 = test system: NCI-H226
# OVCAR-5 = test system: OVCAR-5
# MCF7 = test system: MCF7
# LOX IMVI = test system: LOX IMVI
# SF-539 = test system: SF-539
# Malme-3M = test system: Malme-3M
# UACC-257 = test system: UACC-257
# NCI/ADR-RES = test system: NCI/ADR-RES
# UO-31 = test system: UO-31
# ACHN = test system: ACHN
# CCRF-CEM = test system: CCRF-CEM
# SW-620 = test system: SW-620
# T47D = test system: T47D
# HCT-116 = test system: HCT-116
# UACC-62 = test system: UACC-62
# KM12 = test system: KM12
# EKVX = test system: EKVX
# HCC 2998 = test system: HCC 2998
# SN12C = test system: SN12C
# M14 = test system: M14
# HL-60 = test system: HL-60
# HT-29 = test system: HT-29
# DU-145 = test system: DU-145
# RPMI-8226 = test system: RPMI-8226
# MOLT-4 = test system: MOLT-4
# MDA-MB-435 = test system: MDA-MB-435
# A549 = test system: A549
# IGROV-1 = test system: IGROV-1
# OVCAR-3 = test system: OVCAR-3
# TK-10 = test system: TK-10
# OVCAR-4 = test system: OVCAR-4
# HOP-62 = test system: HOP-62
# MDA-MB-231 = test system: MDA-MB-231
# NCI-H522 = test system: NCI-H522
# NCI-H23 = test system: NCI-H23
# OVCAR-8 = test system: OVCAR-8
# SF-268 = test system: SF-268
# SK-OV-3 = test system: SK-OV-3
# Hs-578T = test system: Hs-578T
# SNB-19 = test system: SNB-19
# SK-MEL-5 = test system: SK-MEL-5
# SR = test system: SR
# 786-0 = test system: 786-0
# SK-MEL-2 = test system: SK-MEL-2
# SF-295 = test system: SF-295
# SNB-75 = test system: SNB-75
# COLO 205 = test system: COLO 205
# HOP-92 = test system: HOP-92
# U-251 = test system: U-251
# A498 = test system: A498
# CAKI-1 = test system: CAKI-1
smiles,measurement,setting,value
CC(=O)OCC1OC(n2c(-c3ccc(Cl)cc3)ccc(C#N)c2=S)C(OC(C)=O)C(OC(C)=O)C1OC(C)=O (centres undefined),GI50,PC-3,> 100 µM (inactive) and 55.5 µM (inactive)
same,GI50,HCT-15,> 100 µM
same,GI50,K562,> 100 µM (inactive)
same,GI50,MDA-N,> 100 µM (inactive)
same,GI50,SK-MEL-28,> 100 µM (inactive)
same,GI50,NCI-H460,> 60.4 µM (inactive) and 55.5 µM (inactive)
same,GI50,RXF 393,20 µM (inactive) and 13.3 µM (inactive)
same,GI50,NCI-H226,27 µM (inactive) and 45.9 µM (inactive)
same,GI50,OVCAR-5,> 100 µM (inactive)
same,GI50,MCF7,> 100 µM (inactive) and 50.5 µM (inactive)
same,GI50,LOX IMVI,54.1 µM (inactive)
same,GI50,SF-539,30.4 µM (inactive) and 39.1 µM (inactive)
same,GI50,Malme-3M,> 61.1 µM (inactive) and 45 µM (inactive)
same,GI50,UACC-257,> 100 µM (inactive) and 73.6 µM (inactive)
same,GI50,NCI/ADR-RES,74 µM (inactive)
same,GI50,UO-31,29.6 µM (inactive) and 33.6 µM (inactive)
same,GI50,ACHN,68.1 µM (inactive) and 58.5 µM (inactive)
same,GI50,CCRF-CEM,> 100 µM (inactive)
same,GI50,SW-620,> 100 µM (inactive)
same,GI50,T47D,30.6 µM (inactive) and 48.9 µM (inactive)
same,GI50,HCT-116,77.4 µM (inactive) and 61.2 µM (inactive)
same,GI50,UACC-62,37.4 µM (inactive) and 31.6 µM (inactive)
same,GI50,KM12,> 100 µM (inactive)
same,GI50,EKVX,17.6 µM (inactive) and 15.1 µM (inactive)
same,GI50,HCC 2998,> 100 µM (inactive)
same,GI50,SN12C,> 100 µM (inactive)
same,GI50,M14,76 µM (inactive) and > 84.7 µM (inactive)
same,GI50,HL-60,> 100 µM (inactive)
same,GI50,HT-29,> 100 µM (inactive)
same,GI50,DU-145,74.8 µM (inactive) and > 77.1 µM (inactive)
same,GI50,RPMI-8226,> 100 µM (inactive) and 56 µM (inactive)
same,GI50,MOLT-4,> 100 µM (inactive) and 51.3 µM (inactive)
same,GI50,MDA-MB-435,53.3 µM (inactive)
same,GI50,A549,83.9 µM (inactive) and 66.5 µM (inactive)
CCOC(=O)Cn1c(=O)c2nc(SC)sc2n(-c2ccccc2)c1=S,GI50,IGROV-1,3.05 µM (inactive)
same,GI50,PC-3,26.2 µM (inactive)
same,GI50,OVCAR-3,26.6 µM (inactive)
same,GI50,TK-10,30.3 µM (inactive)
same,GI50,HCT-15,52 µM
same,GI50,K562,> 100 µM (inactive)
same,GI50,MDA-N,40.8 µM (inactive)
same,GI50,SK-MEL-28,96.6 µM (inactive)
same,GI50,NCI-H460,30.1 µM (inactive)
same,GI50,RXF 393,21 µM (inactive)
same,GI50,OVCAR-4,15.3 µM (inactive)
same,GI50,NCI-H226,18.4 µM (inactive)
same,GI50,HOP-62,19.9 µM (inactive)
same,GI50,OVCAR-5,93.3 µM (inactive)
same,GI50,MCF7,> 100 µM (inactive)
same,GI50,LOX IMVI,94 µM (inactive)
same,GI50,SF-539,15.6 µM (inactive)
same,GI50,Malme-3M,18.8 µM (inactive)
same,GI50,MDA-MB-231,22.3 µM (inactive)
same,GI50,NCI-H522,68.1 µM (inactive)
same,GI50,NCI-H23,36.5 µM (inactive)
same,GI50,OVCAR-8,43.9 µM (inactive)
same,GI50,SF-268,32.4 µM (inactive)
same,GI50,UACC-257,> 100 µM (inactive)
same,GI50,SK-OV-3,22.7 µM (inactive)
same,GI50,NCI/ADR-RES,36.7 µM (inactive)
same,GI50,Hs-578T,4.18 µM (inactive)
same,GI50,SNB-19,13.4 µM (inactive)
same,GI50,SK-MEL-5,> 100 µM (inactive)
same,GI50,SR,> 100 µM (inactive)
same,GI50,UO-31,4.43 µM (inactive)
same,GI50,ACHN,13.9 µM (inactive)
same,GI50,786-0,12.1 µM (inactive)
same,GI50,CCRF-CEM,> 100 µM (inactive)
same,GI50,SW-620,50.4 µM (inactive)
same,GI50,T47D,40.8 µM (inactive)
same,GI50,HCT-116,27.5 µM (inactive)
same,GI50,UACC-62,< 0.01 µM (active)
same,GI50,SK-MEL-2,17.5 µM (inactive)
same,GI50,KM12,25.8 µM (inactive)
same,GI50,HCC 2998,40 µM (inactive)
same,GI50,SF-295,32.5 µM (inactive)
same,GI50,SN12C,35.9 µM (inactive)
same,GI50,SNB-75,4.1 µM (inactive)
same,GI50,M14,32.5 µM (inactive)
same,GI50,HL-60,32.3 µM (inactive)
same,GI50,HT-29,> 100 µM (inactive)
same,GI50,DU-145,> 100 µM (inactive)
same,GI50,COLO 205,42.1 µM (inactive)
same,GI50,RPMI-8226,> 100 µM (inactive)
same,GI50,HOP-92,4.8 µM (inactive)
same,GI50,U-251,13.4 µM (inactive)
same,GI50,MOLT-4,> 100 µM (inactive)
same,GI50,MDA-MB-435,64.6 µM (inactive)
same,GI50,A549,82.2 µM (inactive)
CCOC(=O)/C=C/c1nc(C#N)c(N)o1,GI50,IGROV-1,> 100 µM (inactive)
same,GI50,PC-3,> 100 µM (inactive)
same,GI50,A498,> 100 µM (inactive)
same,GI50,TK-10,> 100 µM (inactive)
same,GI50,HCT-15,> 100 µM
same,GI50,K562,> 100 µM (inactive)
same,GI50,MDA-N,> 100 µM (inactive)
same,GI50,SK-MEL-28,> 100 µM (inactive)
same,GI50,RXF 393,1.46 µM (inactive)
same,GI50,HOP-62,> 100 µM (inactive)
same,GI50,OVCAR-5,> 100 µM (inactive)
same,GI50,MCF7,> 100 µM (inactive)
same,GI50,LOX IMVI,> 100 µM (inactive)
same,GI50,MDA-MB-231,> 100 µM (inactive)
same,GI50,OVCAR-8,> 100 µM (inactive)
same,GI50,SF-268,> 100 µM (inactive)
same,GI50,UACC-257,> 100 µM (inactive)
same,GI50,SK-OV-3,> 100 µM (inactive)
same,GI50,Hs-578T,> 100 µM (inactive)
same,GI50,SNB-19,> 100 µM (inactive)
same,GI50,SK-MEL-5,> 100 µM (inactive)
same,GI50,SR,> 100 µM (inactive)
same,GI50,UO-31,53.6 µM (inactive)
same,GI50,ACHN,> 100 µM (inactive)
same,GI50,786-0,> 100 µM (inactive)
same,GI50,CCRF-CEM,> 100 µM (inactive)
same,GI50,SW-620,> 100 µM (inactive)
same,GI50,HCT-116,> 100 µM (inactive)
same,GI50,UACC-62,> 100 µM (inactive)
same,GI50,SK-MEL-2,> 100 µM (inactive)
same,GI50,KM12,> 100 µM (inactive)
same,GI50,EKVX,> 100 µM (inactive)
same,GI50,CAKI-1,> 100 µM (inactive)
same,GI50,SN12C,> 100 µM (inactive)
same,GI50,SNB-75,> 100 µM (inactive)
same,GI50,M14,> 100 µM (inactive)
same,GI50,HL-60,> 100 µM (inactive)
same,GI50,HT-29,> 100 µM (inactive)
same,GI50,DU-145,> 100 µM (inactive)
same,GI50,RPMI-8226,> 100 µM (inactive)
same,GI50,HOP-92,> 100 µM (inactive)
same,GI50,U-251,> 100 µM (inactive)
same,GI50,MOLT-4,> 100 µM (inactive)
same,GI50,MDA-MB-435,> 100 µM (inactive)
same,GI50,A549,> 100 µM (inactive)
CC[C@@H](CCCCC1CC[C@H]2CC(=O)C[C@@H]12)OC (some centres undefined),GI50,PC-3,> 100 µM (inactive)
same,GI50,K562,33.7 µM (inactive)
same,GI50,MDA-N,> 100 µM (inactive)
same,GI50,OVCAR-4,> 100 µM (inactive)
same,GI50,HOP-62,> 100 µM (inactive)
same,GI50,Malme-3M,> 100 µM (inactive)
same,GI50,Hs-578T,> 100 µM (inactive)
same,GI50,SR,> 100 µM (inactive)
same,GI50,UACC-62,> 100 µM (inactive)
same,GI50,KM12,> 100 µM (inactive)
same,GI50,EKVX,> 100 µM (inactive)
same,GI50,M14,> 100 µM (inactive)
same,GI50,HL-60,36 µM (inactive)
same,GI50,RPMI-8226,> 100 µM (inactive)
same,GI50,MDA-MB-435,> 100 µM (inactive)
